ChEMBL document CHEMBL1649203, “Pharmacokinetics and safety of famciclovir in children with herpes simplex or varicella-zoster virus infection” (Antimicrob Agents Chemother, 2009)

Key:
[1] = Tmax in 2 to <6 years aged pediatric patient administered as single dose; type: ADME, organism-based; conditions: human, in vivo
[2] = Tmax in 6 to <=12 years aged pediatric patient administered as single dose; type: ADME, organism-based; conditions: human, in vivo
[3] = Cmax in 1 to <2 years aged pediatric patient administered as single dose; type: ADME, organism-based; conditions: human, in vivo
[4] = Cmax in 2 to <6 years aged pediatric patient administered as single dose; type: ADME, organism-based; conditions: human, in vivo
[5] = Cmax in 6 to <=12 years aged pediatric patient administered as single dose; type: ADME, organism-based; conditions: human, in vivo
[6] = system: Homo sapiens; experiment: AUC (0 to last) in 1 to <2 years aged pediatric patient administered as single dose; type: ADME, organism-based, Plasma; parameters: time 0 - last; conditions: in vivo
[7] = system: Homo sapiens; experiment: AUC (0 to last) in 2 to <6 years aged pediatric patient administered as single dose; type: ADME, organism-based, Plasma; parameters: time 0 - last; conditions: in vivo
[8] = system: Homo sapiens; experiment: AUC (0 to last) in 6 to <=12 years aged pediatric patient administered as single dose; type: ADME, organism-based, Plasma; parameters: time 0 - last; conditions: in vivo
[9] = system: Homo sapiens; experiment: AUC (0 to infinity) in 1 to <2 years aged pediatric patient administered as single dose; type: ADME, organism-based, Plasma; parameters: time infinity; conditions: in vivo
[10] = system: Homo sapiens; experiment: AUC (0 to infinity) in 2 to <6 years aged pediatric patient administered as single dose; type: ADME, organism-based, Plasma; parameters: time infinity; conditions: in vivo
[11] = system: Homo sapiens; experiment: AUC (0 to infinity) in 6 to <=12 years aged pediatric patient administered as single dose; type: ADME, organism-based, Plasma; parameters: time infinity; conditions: in vivo
[12] = Half life in 1 to <2 years aged pediatric patient administered as single dose; type: ADME, organism-based; conditions: human, in vivo
[13] = Half life in 2 to <6 years aged pediatric patient administered as single dose; type: ADME, organism-based; conditions: human, in vivo
[14] = Half life in 6 to <=12 years aged pediatric patient administered as single dose; type: ADME, organism-based; conditions: human, in vivo
[15] = Apparent oral clearance in 1 to <2 years aged pediatric patient administered as single dose; type: ADME, organism-based; conditions: human, in vivo
[16] = Apparent oral clearance in 2 to <6 years aged pediatric patient administered as single dose; type: ADME, organism-based; conditions: human, in vivo
[17] = Apparent oral clearance in 6 to <=12 years aged pediatric patient administered as single dose; type: ADME, organism-based; conditions: human, in vivo
[18] = system: Homo sapiens; experiment: Toxicity in HSV-infected 1 to <2 years aged pediatric patient assessed as at least one adverse event at 30.9 mg/kg, po bid; type: organism-based; parameters: dose 30.9 mg/kg, route oral; conditions: in vivo
[19] = system: Homo sapiens; experiment: Toxicity in HSV-infected 2 to <6 years aged pediatric patient assessed as at least one adverse event at 27.6 mg/kg, po bid; type: organism-based; parameters: dose 27.6 mg/kg, route oral; conditions: in vivo
[20] = system: Homo sapiens; experiment: Toxicity in HSV-infected 6 to <=12 years aged pediatric patient assessed as at least one adverse event at 23.5 mg/kg, po bid; type: organism-based; parameters: dose 23.5 mg/kg, route oral; conditions: in vivo
[21] = system: Homo sapiens; experiment: Toxicity in orally dosed HSV-infected patient assessed as at least one adverse event administered as bid; type: organism-based; conditions: in vivo, po
[22] = system: Homo sapiens; experiment: Toxicity in HSV-infected 1 to <2 years aged pediatric patient assessed as incidence of vomiting at 30.9 mg/kg, po bid; type: organism-based; parameters: dose 30.9 mg/kg, route oral; conditions: in vivo
[23] = system: Homo sapiens; experiment: Toxicity in HSV-infected 2 to <6 years aged pediatric patient assessed as incidence of vomiting at 27.6 mg/kg, po bid; type: organism-based; parameters: dose 27.6 mg/kg, route oral; conditions: in vivo
[24] = system: Homo sapiens; experiment: Toxicity in HSV-infected 6 to <=12 years aged pediatric patient assessed as incidence of vomiting at 23.5 mg/kg, po bid; type: organism-based; parameters: dose 23.5 mg/kg, route oral; conditions: in vivo
[25] = system: Homo sapiens; experiment: Toxicity in orally dosed HSV-infected patient assessed as incidence of vomiting administered as bid; type: organism-based; conditions: in vivo, po
[26] = system: Homo sapiens; experiment: Toxicity in HSV-infected 1 to <2 years aged pediatric patient assessed as incidence of diarrhea at 30.9 mg/kg, po bid; type: organism-based; parameters: dose 30.9 mg/kg, route oral; conditions: in vivo
[27] = system: Homo sapiens; experiment: Toxicity in HSV-infected 2 to <6 years aged pediatric patient assessed as incidence of diarrhea at 27.6 mg/kg, po bid; type: organism-based; parameters: dose 27.6 mg/kg, route oral; conditions: in vivo
[28] = system: Homo sapiens; experiment: Toxicity in HSV-infected 6 to <=12 years aged pediatric patient assessed as incidence of diarrhea at 23.5 mg/kg, po bid; type: organism-based; parameters: dose 23.5 mg/kg, route oral; conditions: in vivo
[29] = system: Homo sapiens; experiment: Toxicity in orally dosed HSV-infected patient assessed as incidence of diarrhea administered as bid; type: organism-based; conditions: in vivo, po
[30] = system: Homo sapiens; experiment: Toxicity in HSV-infected 1 to <2 years aged pediatric patient assessed as incidence of headache at 30.9 mg/kg, po bid; type: organism-based; parameters: dose 30.9 mg/kg, route oral; conditions: in vivo
[31] = system: Homo sapiens; experiment: Toxicity in HSV-infected 2 to <6 years aged pediatric patient assessed as incidence of headache at 27.6 mg/kg, po bid; type: organism-based; parameters: dose 27.6 mg/kg, route oral; conditions: in vivo
[32] = system: Homo sapiens; experiment: Toxicity in HSV-infected 6 to <=12 years aged pediatric patient assessed as incidence of headache at 23.5 mg/kg, po bid; type: organism-based; parameters: dose 23.5 mg/kg, route oral; conditions: in vivo
[33] = system: Homo sapiens; experiment: Toxicity in orally dosed HSV-infected patient assessed as incidence of headache administered as bid; type: organism-based; conditions: in vivo, po
[34] = system: Homo sapiens; experiment: Toxicity in HSV-infected 1 to <2 years aged pediatric patient assessed as incidence of nausea at 30.9 mg/kg, po bid; type: organism-based; parameters: dose 30.9 mg/kg, route oral; conditions: in vivo
[35] = system: Homo sapiens; experiment: Toxicity in HSV-infected 2 to <6 years aged pediatric patient assessed as incidence of nausea at 27.6 mg/kg, po bid; type: organism-based; parameters: dose 27.6 mg/kg, route oral; conditions: in vivo
[36] = system: Homo sapiens; experiment: Toxicity in HSV-infected 6 to <=12 years aged pediatric patient assessed as incidence of nausea at 23.5 mg/kg, po bid; type: organism-based; parameters: dose 23.5 mg/kg, route oral; conditions: in vivo
[37] = system: Homo sapiens; experiment: Toxicity in orally dosed HSV-infected patient assessed as incidence of nausea administered as bid; type: organism-based; conditions: in vivo, po
[38] = system: Homo sapiens; experiment: Toxicity in HSV-infected 1 to <2 years aged pediatric patient assessed as incidence of cough at 30.9 mg/kg, po bid; type: organism-based; parameters: dose 30.9 mg/kg, route oral; conditions: in vivo
[39] = system: Homo sapiens; experiment: Toxicity in HSV-infected 2 to <6 years aged pediatric patient assessed as incidence of cough at 27.6 mg/kg, po bid; type: organism-based; parameters: dose 27.6 mg/kg, route oral; conditions: in vivo
[40] = system: Homo sapiens; experiment: Toxicity in HSV-infected 6 to <=12 years aged pediatric patient assessed as incidence of cough at 23.5 mg/kg, po bid; type: organism-based; parameters: dose 23.5 mg/kg, route oral; conditions: in vivo
[41] = system: Homo sapiens; experiment: Toxicity in orally dosed HSV-infected patient assessed as incidence of cough administered as bid; type: organism-based; conditions: in vivo, po
[42] = system: Homo sapiens; experiment: Toxicity in HSV-infected 1 to <2 years aged pediatric patient assessed as incidence of abdominal pain at 30.9 mg/kg, po bid; type: organism-based, Abdomen; parameters: dose 30.9 mg/kg, route oral; conditions: in vivo
[43] = system: Homo sapiens; experiment: Toxicity in HSV-infected 2 to <6 years aged pediatric patient assessed as incidence of abdominal pain at 27.6 mg/kg, po bid; type: organism-based, Abdomen; parameters: dose 27.6 mg/kg, route oral; conditions: in vivo

Tmax [1]: 1.07 h
Tmax [2]: 1 h
Cmax [3]: 3060 ng/mL
Cmax [4]: 2780 ng/mL
Cmax [5]: 3410 ng/mL
AUC [6]: 6.52 ug/hr.ml
AUC [7]: 6.31 ug/hr.ml
AUC [8]: 7.98 ug/hr.ml
AUC [9]: 7.16 ug/hr.ml
AUC [10]: 7.23 ug/hr.ml
AUC [11]: 9.33 ug/hr.ml
half-life [12]: 72 min
half-life [13]: 76.8 min
half-life [14]: 97.2 min
CL/F [15]: 278 mL/min
CL/F [16]: 410 mL/min
CL/F [17]: 578 mL/min
SMILES: Nc1nc2c(ncn2CCC(CO)CO)c(=O)[nH]1 [PENCICLOVIR]
Activity [18]: 42.2%
Activity [19]: 50%
Activity [20]: 66.7%
Activity [21]: 55.3%
Activity [22]: 15.4%
Activity [23]: 6.3%
Activity [24]: 11.1%
Activity [25]: 10.6%
Activity [26]: 7.7%
Activity [27]: 6.3%
Activity [28]: 11.1%
Activity [29]: 8.5%
Activity [30]: 0%
Activity [31]: 0%
Activity [32]: 22.2%
Activity [33]: 8.5%
Activity [34]: 7.7%
Activity [35]: 0%
Activity [36]: 11.1%
Activity [37]: 6.4%
Activity [38]: 7.7%
Activity [39]: 6.3%
Activity [40]: 5.6%
Activity [41]: 6.4%
Activity [42]: 0%
Activity [43]: 6.3%
